Tests used:
[1] = system: Mus musculus; experiment: Toxicity in Kunming mouse xenografted with […] H22 cells assessed as effect on liver weight index at 100 mg/kg, ig administered for 7 consecutive days; type: organism-based; settings: in vivo, po
[2] = system: H22; experiment: Antitumor activity against […] xenografted in Kunming mouse assessed as tumor growth inhibition at 100 mg/kg, ig for 7 consecutive days measured on day 16; type: functional; settings: H22, po, 384 h, read-out: TGI
[3] = system: Mus musculus; experiment: Toxicity in Kunming mouse xenografted with […] H22 cells assessed as effect on body weight at 100 mg/kg, ig administered for 7 consecutive days; type: organism-based; settings: in vivo, po
[4] = system: Mus musculus; experiment: Toxicity in Kunming mouse xenografted with […] H22 cells assessed as effect on heart weight index at 100 mg/kg, ig administered for 7 consecutive days; type: organism-based; settings: in vivo, po
[5] = system: Mus musculus; experiment: Toxicity in Kunming mouse xenografted with […] H22 cells assessed as effect on spleen weight index at 100 mg/kg, ig administered for 7 consecutive days; type: organism-based; settings: in vivo, po
[6] = system: Mus musculus; experiment: Toxicity in Kunming mouse xenografted with […] H22 cells assessed as effect on lung weight index at 100 mg/kg, ig administered for 7 consecutive days; type: organism-based; settings: in vivo, po
[7] = system: Mus musculus; experiment: Toxicity in Kunming mouse xenografted with […] H22 cells assessed as effect on kidney weight index at 100 mg/kg, ig administered for 7 consecutive days; type: organism-based; settings: in vivo, po
[8] = Toxicity in Kunming mouse assessed as maximum tolerated dose administered for 7 consecutive days; type: organism-based; settings: in vivo
[9] = system: HCT-116; experiment: Antiproliferative activity against human HCT116 cells after 48 hrs by MTT assay; type: functional, cell-based; settings: HCT-116, 48 h
[10] = system: HT-29; experiment: Antiproliferative activity against human HT-29 cells after 48 hrs by MTT assay; type: functional, cell-based; settings: HT-29, 48 h
[11] = system: HeLa; experiment: Antiproliferative activity against human HeLa cells after 48 hrs by MTT assay; type: functional, cell-based
[12] = system: K562; experiment: Antiproliferative activity against human K562 cells after 48 hrs by MTT assay; type: functional, cell-based; settings: K562, 48 h
[13] = system: HepG2; experiment: Antiproliferative activity against human HepG2 cells after 48 hrs by MTT assay; type: functional, cell-based; settings: HepG2, 48 h
[14] = system: H22; experiment: Antitumor activity against […] xenografted in Kunming mouse assessed as tumor growth inhibition at 10 mg/kg, iv for 7 consecutive days measured on day 16; type: functional; settings: 384 h, read-out: TGI
[15] = Toxicity in iv dosed Kunming mouse assessed as maximum tolerated dose administered for 7 consecutive days; type: organism-based; settings: in vivo

| IC50 [9] [µM] | IC50 [10] [µM] | IC50 [11] [µM] | IC50 [12] [µM] | IC50 [13] [µM] | Structure (SMILES) | also measured |
| --- | --- | --- | --- | --- | --- | --- |
| – | – | – | – | – | O=c1c(O)c(-c2ccc(O)c(O)c2)oc2cc(O)cc(O)c12 [QUERCETIN] | Activity [1]: Non-Toxic; inhibition in vivo at 100 mg/kg [2]: 34.3 to 38.7%; Activity [3]: Non-Toxic; Activity [4]: Non-Toxic; Activity [5]: Non-Toxic; Activity [6]: Non-Toxic; Activity [7]: Non-Toxic |
| – | – | – | – | – | Cl.Cl.NCCCNCC(=O)NCc1cccc2c(=O)cc(-c3cccc4ccccc34)oc12 | MTD at 7 days [8]: 20 mg/kg |
| 24.1 | 18.9 | 18.7 | 25.9 | 19.9 | COc1c(-c2ccc(-c3ccccc3)cc2)oc2c(CNCCN)cccc2c1=O | – |
| 14.8 | 31.4 | 13.9 | 15.8 | 22.2 | COc1c(-c2ccc(-c3ccccc3)cc2)oc2c(CNCCCNCCCCN)cccc2c1=O | – |
| 19.3 | 21.8 | 9.63 | 18.5 | 14.3 | COc1ccc2cc(-c3oc4c(CNCCCCNCCCCN)cccc4c(=O)c3OC)ccc2c1Br | – |
| 12.8 | 23.1 | 11.2 | 19.2 | 15.1 | COc1ccc2cc(-c3oc4c(CNCCCN)cccc4c(=O)c3OC)ccc2c1Br | – |
| 16.4 | 16.1 | 10.3 | 24.4 | 16.2 | COc1c(-c2ccc(-c3ccccc3)cc2)oc2c(CNCCCCN)cccc2c1=O | – |
| 23.4 | 24.7 | 20.5 | 41.6 | > 50 | NCCCNCc1c(-c2ccc(-c3ccccc3)cc2)oc2ccccc2c1=O | – |
| 20.1 | 25.6 | 18.6 | 19.8 | 24.4 | COc1c(-c2ccc(-c3ccccc3)cc2)oc2c(CNCCCCNCCCCN)cccc2c1=O | – |

| Structure (SMILES) | IC50 [9] [µM] | IC50 [10] [µM] | IC50 [11] [µM] | IC50 [12] [µM] | IC50 [13] [µM] | also measured |
| --- | --- | --- | --- | --- | --- | --- |
| O=C1c2c(O)ccc(O)c2C(=O)c2c(NCCNCCO)ccc(NCCNCCO)c21 [MITOXANTRONE] | 1.61 | 21.7 | 2.35 | 4.55 | 18.6 | – |
| COc1c(-c2ccc(-c3ccccc3)cc2)oc2c(CNCCCN)cccc2c1=O.Cl.Cl | 5.1 | 8.25 | 7.8 | 9.3 | 10.4 | inhibition in vivo at 10 mg/kg [14]: 31.5%; MTD at 7 days [15]: 15 mg/kg |

Source: ChEMBL document CHEMBL4196011, “The lead optimization of the polyamine conjugate of flavonoid with a naphthalene motif: Synthesis and biological evaluation” (Eur J Med Chem, 2018)
